What was measured:
Assay in all cases: relative viability (nuclei count vs DMSO), 5 days (fraction); higher = more cells survive
Avagacestat + AZD7762 = compound: NC(=O)[C@@H](CCC(F)(F)F)N(Cc1ccc(-c2ncon2)cc1F)S(=O)(=O)c1ccc(Cl)cc1 [Avagacestat] + NC(=O)Nc1cc(-c2cccc(F)c2)sc1C(=O)N[C@H]1CCCNC1 [AZD7762] (partner 0.2 µM)
Summary of the method: (§1)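 After 5 days of treatment, lung cancer cells in 1536-well plates were fixed and stained in a single step (final 0.05% Triton X-100, 1% formaldehyde, 1 ug/ml Hoechst) and their nuclei counted on 4× images. Treatment had been applied by pin tool the day after seeding as one drug alone or as a fixed anchor-drug dose with five library-drug doses (not always all listed) in √10 steps. Relative viability is the nuclei count of treated wells divided by that of vehicle wells, and values are medians of duplicate plates.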

Avagacestat + Bortezomib = compound: NC(=O)[C@@H](CCC(F)(F)F)N(Cc1ccc(-c2ncon2)cc1F)S(=O)(=O)c1ccc(Cl)cc1 [Avagacestat] + CC(C)C[C@H](NC(=O)[C@H](Cc1ccccc1)NC(=O)c1cnccn1)B(O)O [Bortezomib] (partner 0.002 µM)
Summary of the method: as §1

Avagacestat + Tozasertib = compound: NC(=O)[C@@H](CCC(F)(F)F)N(Cc1ccc(-c2ncon2)cc1F)S(=O)(=O)c1ccc(Cl)cc1 [Avagacestat] + Cc1cc(Nc2cc(N3CCN(C)CC3)nc(Sc3ccc(NC(=O)C4CC4)cc3)n2)n[nH]1 [Tozasertib] (partner 0.1 µM)
Summary of the method: as §1

Avagacestat + Decitabine = compound: NC(=O)[C@@H](CCC(F)(F)F)N(Cc1ccc(-c2ncon2)cc1F)S(=O)(=O)c1ccc(Cl)cc1 [Avagacestat] + Nc1ncn([C@H]2C[C@H](O)[C@@H](CO)O2)c(=O)n1 [Decitabine] (partner 2 µM)
Summary of the method: as §1

| Cell Line | relative viability (Avagacestat + AZD7762; first compound 0.08 µM) | relative viability (Avagacestat + AZD7762; first compound 0.253 µM) | relative viability (Avagacestat + AZD7762; first compound 0.8 µM) | relative viability (Avagacestat + AZD7762; first compound 2.53 µM) | relative viability (Avagacestat + AZD7762; first compound 8 µM) | relative viability (Avagacestat + Bortezomib; first compound 0.08 µM) | relative viability (Avagacestat + Bortezomib; first compound 0.253 µM) | relative viability (Avagacestat + Bortezomib; first compound 0.8 µM) | relative viability (Avagacestat + Bortezomib; first compound 2.53 µM) | relative viability (Avagacestat + Bortezomib; first compound 8 µM) | relative viability (Avagacestat + Tozasertib; first compound 0.08 µM) | relative viability (Avagacestat + Tozasertib; first compound 0.253 µM) | relative viability (Avagacestat + Tozasertib; first compound 0.8 µM) | relative viability (Avagacestat + Tozasertib; first compound 2.53 µM) | relative viability (Avagacestat + Tozasertib; first compound 8 µM) | relative viability (Avagacestat + Decitabine; first compound 0.08 µM) | relative viability (Avagacestat + Decitabine; first compound 0.253 µM) | relative viability (Avagacestat + Decitabine; first compound 0.8 µM) | relative viability (Avagacestat + Decitabine; first compound 2.53 µM) | relative viability (Avagacestat + Decitabine; first compound 8 µM) |
| --- | --- | --- | --- | --- | --- | --- | --- | --- | --- | --- | --- | --- | --- | --- | --- | --- | --- | --- | --- | --- |
| NCI-H596 | 1.21 | 1.14 | 1.17 | 0.971 | 1.05 | 0.956 | 1.13 | 1.13 | 1.14 | 0.823 | 0.979 | 0.784 | 0.774 | 0.754 | 0.827 | 1.09 | 1.01 | 1.28 | 0.906 | 0.928 |
| NCI-H441 | 1.02 | 1.23 | 1.37 | 1.35 | 0.877 | 0.66 | 0.925 | 0.531 | 0.485 | 0.248 | 0.968 | 0.715 | 0.529 | 0.683 | 0.483 | 0.263 | 0.232 | 0.245 | 0.265 | 0.24 |
| EKVX | 0.699 | 0.779 | 0.818 | 0.633 | 0.624 | 1.18 | 1.44 | 1.23 | 0.885 | 0.9 | 0.401 | 0.373 | 0.382 | 0.34 | 0.287 | 0.391 | 0.299 | 0.378 | 0.354 | 0.36 |
| NCI-H1755 | 0.425 | 0.672 | 0.4 | 0.38 | 0.473 | 0.996 | 1.11 | 1.07 | 0.967 | 0.937 | 0.641 | 0.562 | 0.575 | 0.624 | 0.54 | 0.732 | 0.665 | 0.755 | 0.718 | 0.72 |
| ABC-1 | 0.864 | 1.02 | 0.895 | 0.94 | 0.664 | 0.325 | 0.294 | 0.362 | 0.273 | 0.271 | 0.164 | 0.16 | 0.178 | 0.187 | 0.179 | 1.12 | 1.26 | 1.07 | 1.17 | 1.24 |
| NCI-H647 | 0.634 | 0.484 | 0.565 | 0.516 | 0.292 | 1.66 | 1.15 | 1.14 | 1.06 | 0.922 | – | 0.319 | 0.199 | 0.263 | 0.0556 | 0.459 | 0.465 | 0.42 | 0.374 | 0.377 |
| EPLC-272H | 0.268 | 0.233 | 0.244 | 0.169 | 0.156 | 1.02 | 1.02 | 1.05 | 1.21 | 0.922 | 0.186 | 0.48 | 0.152 | 0.249 | 0.203 | 0.421 | 0.435 | 0.4 | 0.322 | 0.352 |
| NCI-H460 | 0.768 | 0.87 | 0.863 | 0.682 | 0.608 | – | – | 1.36 | 1.18 | 1.15 | 0.616 | 0.651 | 0.492 | 0.156 | 0.155 | 0.628 | 0.703 | 0.481 | 0.417 | 0.419 |
